# Measured values as given in patent publication KR20130112248A, “피라졸로피리미딘 유도체 화합물, 이를 포함하는 산화질소 생성 억제용 조성물 및 뇌신경 질환 예방 및 치료용 약학적 조성물” (한국과학기술연구원, priority 2012, dated 2013).
# System: NO production in BV-2 cells [NO 생성; BV-2 세포]
# Assay: Nitric oxide (NO) quantification (nitrite, Griess reaction) in LPS-activated BV-2 cells
# Assay type: cell-based
# Details: 20 μM, LPS 0.2 ㎍/mL, 24 h co-treatment, nitrite by Griess at 540 nm
row,Compound,NO (% of LPS)
1,"N-(2-메톡시벤질)-6-(메틸설파이닐)-1-페닐-1H-피라졸로[3,4-d]피리미딘-4-아민 [화합물 22c]",55±4 % of LPS
2,"N-(2-메톡시벤질)-6-(메틸설포닐)-1-페닐-1H-피라졸로[3,4-d]피리미딘-4-아민 [화합물 23d]",35±7.4 % of LPS
3,"N-(2-클로로벤질)-6-(메틸설파이닐)-1-페닐-1H-피라졸로[3,4-d]피리미딘-4-아민 [화합물 22f]",58±3.7 % of LPS
4,"N-벤질-1-메틸-6-(메틸티오)피라졸로[3,4-d]피리미딘-4-아민 [화합물 12n]",51±1 % of LPS

# Same assay, conditions: 20 μM, LPS 0.2 ㎍/mL, 24 h co-treatment, nitrite by Griess at 540 nm, 1440 min
row,Compound,NO (% of LPS)
1,"COc1cccc(CCn2ncc3c(NCc4ccccc4C)nc(S(C)(=O)=O)nc32)c1 [화합물 23y, N-(2-메틸벤질)-1-(3-메톡시펜에틸)-6-(메틸설포닐)-1H-피라졸로[3,4-d]피리미딘-4-아민]",54±3.5 % of LPS
2,"CCCCNc1nc(NC(C)c2ccccc2)c2cnn(Cc3ccccc3)c2n1 (stereo not drawn) [화합물 24f, 1-벤질-N6-뷰틸-N4-(1-페닐에틸)-1H-피라졸로[3,4-d]피리미딘-4,6-디아민]",9±1 % of LPS

# Same assay, conditions: Mus musculus, BV-2, 24 h, 20 μM, LPS 0.2 ㎍/mL, 24 h co-treatment, nitrite by Griess at 540 nm
row,Compound,activity at 20 µM
1,"COc1cccc(CNc2nc(S(C)(=O)=O)nc3c2cnn3CCc2ccccc2OC)c1 [화합물 23z, 1-(2-메톡시펜에틸)-N-(3-메톡시벤질)-6-(메틸설포닐)-1H-피라졸로[3,4-d]피리미딘-4-아민]",51 ± 3.5%
2,"COc1ccc(CNc2nc(S(C)(=O)=O)nc3c2cnn3CCc2ccccc2OC)cc1 [화합물 23za, 1-(2-메톡시펜에틸)-N-(4-메톡시벤질)-6-(메틸설포닐)-1H-피라졸로[3,4-d]피리미딘-4-아민]",56 ± 3.6%
3,"CC(Nc1nc(NCCO)nc2c1cnn2Cc1ccccc1)c1ccccc1 (stereo not drawn) [화합물 24a, 2-(4-(1-페닐에틸아미노)-1-벤질-1H-피라졸로[3,4-d]피리미딘-6-일아미노)에탄올]",78 ± 1.4%
4,"CC(Nc1nc(NCCCO)nc2c1cnn2Cc1ccccc1)c1ccccc1 (stereo not drawn) [화합물 24b, 3-(4-(1-페닐에틸아미노)-1-벤질-1H-피라졸로[3,4-d]피리미딘-6-일아미노)프로판-1-올]",137 ± 5.7%
5,"CC(Nc1nc(NCCCCO)nc2c1cnn2Cc1ccccc1)c1ccccc1 (stereo not drawn) [화합물 24c, 4-(4-(1-페닐에틸아미노)-1-벤질-1H-피라졸로[3,4-d]피리미딘-6-일아미노)부탄-1-올]",123 ± 5.4%
6,"CC(Nc1nc(NCCOCCO)nc2c1cnn2Cc1ccccc1)c1ccccc1 (stereo not drawn) [화합물 24d, 2-(2-(4-(1-페닐에틸아미노)-1-벤질-1H-피라졸로[3,4-d]피리미딘-6-일아미노)에톡시)에탄올]",130 ± 1.8%
7,"CC(Nc1nc(NCc2ccccc2)nc2c1cnn2Cc1ccccc1)c1ccccc1 (stereo not drawn) [화합물 24e, N6,1-디벤질-N4-(1-페닐에틸)-1-벤질-1H-피라졸로[3,4-d]피리미딘-4,6-디아민]",41 ± 16.3%
8,"CC(Nc1nc(N(C)C)nc2c1cnn2Cc1ccccc1)c1ccccc1 (stereo not drawn) [화합물 24g, 1-벤질-N6,N6-디메틸-N4-(1-페닐에틸)-1H-피라졸로[3,4-d]피리미딘-4,6-디아민]",63 ± 2.6%
9,"COCCNc1nc(NC(C)c2ccccc2)c2cnn(Cc3ccccc3)c2n1 (stereo not drawn) [화합물 24h, 1-벤질-N6-(2-메톡시에틸)-N4-(1-페닐에틸)-1H-피라졸로[3,4-d]피리미딘-4,6-디아민]",44 ± 4.2%
10,"C=CCSc1nc(SC)nc2c1cnn2-c1ccccc1 [화합물 25b, 1-페닐-4-알릴티오-6-(메틸티오)피라졸로[3,4-d]피리미딘]",89 ± 6%
11,"CSc1nc(NCc2ccccc2)c2cnn(CCO)c2n1 [화합물 27a, 1-(1-하이드록시에틸)-4-벤질아미노-6-(메틸티오)피라졸로[3,4-d]피리미딘]",77 ± 5%
12,"CSc1nc(NCc2ccc(F)cc2)c2cnn(CCO)c2n1 [화합물 27b, 1-(1-하이드록시에틸)-4-(4-플루오로벤질)벤질아미노-6-(메틸티오)피라졸로[3,4-d]피리미딘]",73 ± 10%
13,"C=CCNc1nc(SC)nc2c1cnn2CCO [화합물 27c, 1-(1-하이드록시에틸)-4-알릴아미노-6-(메틸티오)피라졸로[3,4-d]피리미딘]",98 ± 6%
14,"COc1cccc(CNc2nc(SC)nc3c2cnn3CCO)c1 [화합물 27d, 1-(1-하이드록시에틸)-4-(3-메톡시벤질)아미노-6-(메틸티오)피라졸로[3,4-d]피리미딘]",49 ± 12%
15,"COc1ccc(CNc2nc(SC)nc3c2cnn3CCO)cc1 [화합물 27e, 1-(1-하이드록시에틸)-4-(4-메톡시벤질)아미노-6-(메틸티오)피라졸로[3,4-d]피리미딘]",56 ± 6%
16,"COc1nc(SC)nc2c1cnn2CCO [화합물 27f, 2-(4-메톡시-6-(메틸티오)-1H-피라졸로[3,4-d]피리미딘-1-일)에탄올]",86 ± 3%
17,"CSc1nc(NCc2ccccc2C)c2cnn(CCO)c2n1 [화합물 27g, 2-(4-(2-메틸벤질아미노)-6-(메틸티오)-1H-피라졸로[3,4-d]피리미딘-1-일)에탄올]",82 ± 2.5%
18,"CSc1nc(NCc2ccccc2Cl)c2cnn(CCO)c2n1 [화합물 27h, 2-(4-(2-클로로벤질아미노)-6-(메틸티오)-1H-피라졸로[3,4-d]피리미딘-1-일)에탄올]",87.4 ± 1.2%
19,"COc1ccccc1CNc1nc(SC)nc2c1cnn2CCO [화합물 27i, 2-(4-(2-메톡시벤질아미노)-6-(메틸티오)-1H-피라졸로[3,4-d]피리미딘-1-일)에탄올]",83.5 ± 3.1%
20,"CSc1nc(Cl)c2c(-c3ccccc3)nn(-c3ccccc3)c2n1 [화합물 30a, 1-페닐-3-페닐-4-클로로-6-(메틸티오)피라졸로[3,4-d]피리미딘]",13 ± 18%
21,"CSc1nc(Cl)c2c(-c3ccccc3)nn(Cc3ccccc3)c2n1 [화합물 30b, 1-벤질-3-페닐-4-클로로-6-(메틸티오)피라졸로[3,4-d]피리미딘]",31 ± 19%
22,"CSc1nc(Cl)c2c(-c3ccccc3)nn(C(C)(C)C)c2n1 [화합물 30c, 1-t-뷰틸-3-페닐-4-클로로-6-(메틸티오)피라졸로[3,4-d]피리미딘]",21 ± 22%
23,"CSc1nc(NCc2ccccc2)c2c(-c3ccccc3)nn(-c3ccccc3)c2n1 [화합물 31a, 1-페닐-3-페닐-4-벤질아미노-6-(메틸티오)피라졸로[3,4-d]피리미딘]",68 ± 28%
24,"CSc1nc(NCc2ccc(F)cc2)c2c(-c3ccccc3)nn(-c3ccccc3)c2n1 [화합물 31c, 1-페닐-3-페닐-4-(4-플루오로벤질)아미노-6-(메틸티오)피라졸로[3,4-d]피리미딘]",100 ± 4%
25,"CSc1nc(NCCc2ccccc2)c2c(-c3ccccc3)nn(-c3ccccc3)c2n1 [화합물 31e, 1-페닐-3-페닐-4-(2-페닐에틸)아미노-6-(메틸티오)피라졸로[3,4-d]피리미딘]",105 ± 10%
26,"CSc1nc(NCc2ccccn2)c2c(-c3ccccc3)nn(-c3ccccc3)c2n1 [화합물 31f, 1-페닐-3-페닐-4-(피리딘-2-일)메틸아미노-6-(메틸티오)피라졸로[3,4-d]피리미딘]",100 ± 5%
27,"C=CCNc1nc(SC)nc2c1c(-c1ccccc1)nn2-c1ccccc1 [화합물 31g, 1-페닐-3-페닐-4-알릴아미노-6-(메틸티오)피라졸로[3,4-d]피리미딘]",71 ± 3%
